Source: ChEMBL document CHEMBL5131409, “Synthesis and characterization of chiral 6-azaspiro[2.5]octanes as potent and selective antagonists of the M4 muscarinic acetylcholine receptor” (Bioorg Med Chem Lett, 2022)

What was measured:
[1] = Volume of distribution in rat at 3 mg/kg, iv; assay type: ADME, organism-based; conditions: in vivo
[2] = target: T1, Cytochrome P450 1A2 (Homo sapiens, UniProt P05177); assay: Inhibition of CYP1A2 in human liver microsomes using cocktail of isoform-specific probe substrate; assay type: ADME, Microsome
T1 sequence (P05177 whole entry): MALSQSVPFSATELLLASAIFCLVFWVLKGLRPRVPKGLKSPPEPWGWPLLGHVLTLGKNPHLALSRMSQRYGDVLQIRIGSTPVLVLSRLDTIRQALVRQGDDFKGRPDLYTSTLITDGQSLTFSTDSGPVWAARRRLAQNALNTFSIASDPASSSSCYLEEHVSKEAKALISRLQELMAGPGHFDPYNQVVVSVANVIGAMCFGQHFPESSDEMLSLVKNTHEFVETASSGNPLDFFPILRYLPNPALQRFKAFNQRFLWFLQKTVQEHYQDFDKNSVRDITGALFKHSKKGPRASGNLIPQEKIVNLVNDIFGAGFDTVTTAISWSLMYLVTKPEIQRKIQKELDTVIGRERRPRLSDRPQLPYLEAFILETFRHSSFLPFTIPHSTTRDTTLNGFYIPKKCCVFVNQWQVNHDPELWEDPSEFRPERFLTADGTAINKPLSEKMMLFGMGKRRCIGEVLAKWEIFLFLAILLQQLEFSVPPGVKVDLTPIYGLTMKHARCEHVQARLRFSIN

[3] = Tmax in rat plasma at 3 mg/kg, ip; assay type: ADME, organism-based
[4] = target: T2, Muscarinic acetylcholine receptor M2 (Homo sapiens, UniProt P08172); assay: Inhibition of human muscarinic acetylcholine M2 receptor expressed in CHO cells co-expressing Gqi5 in the presence of acetylcholine at EC80 concentration by calcium mobilization assay; assay type: functional, cell-based
T2 sequence (P08172 whole entry): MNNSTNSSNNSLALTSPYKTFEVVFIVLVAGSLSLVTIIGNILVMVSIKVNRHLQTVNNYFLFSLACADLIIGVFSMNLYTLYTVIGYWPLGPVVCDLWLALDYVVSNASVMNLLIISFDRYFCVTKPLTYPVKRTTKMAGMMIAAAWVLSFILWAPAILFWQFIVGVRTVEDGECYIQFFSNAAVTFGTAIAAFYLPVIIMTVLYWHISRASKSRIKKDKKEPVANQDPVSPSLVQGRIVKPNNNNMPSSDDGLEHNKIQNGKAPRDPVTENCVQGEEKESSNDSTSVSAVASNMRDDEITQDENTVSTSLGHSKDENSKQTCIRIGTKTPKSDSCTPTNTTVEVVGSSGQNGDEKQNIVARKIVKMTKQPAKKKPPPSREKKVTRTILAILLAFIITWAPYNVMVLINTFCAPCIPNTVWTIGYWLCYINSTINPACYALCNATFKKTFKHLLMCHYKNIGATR

[5] = Ratio of AUC (0.25 to last) in rat brain to plasma at 3 mg/kg, ip; assay type: ADME, organism-based; conditions: read-out: Ratio AUC
[6] = target: T3, Muscarinic acetylcholine receptor M4 (Homo sapiens, UniProt P08173); assay: Inhibition of human muscarinic acetylcholine M4 receptor expressed in CHO cells co-expressing Gqi5 in the presence of acetylcholine at EC80 concentration by calcium mobilization assay; assay type: functional, cell-based
T3 sequence (P08173 whole entry): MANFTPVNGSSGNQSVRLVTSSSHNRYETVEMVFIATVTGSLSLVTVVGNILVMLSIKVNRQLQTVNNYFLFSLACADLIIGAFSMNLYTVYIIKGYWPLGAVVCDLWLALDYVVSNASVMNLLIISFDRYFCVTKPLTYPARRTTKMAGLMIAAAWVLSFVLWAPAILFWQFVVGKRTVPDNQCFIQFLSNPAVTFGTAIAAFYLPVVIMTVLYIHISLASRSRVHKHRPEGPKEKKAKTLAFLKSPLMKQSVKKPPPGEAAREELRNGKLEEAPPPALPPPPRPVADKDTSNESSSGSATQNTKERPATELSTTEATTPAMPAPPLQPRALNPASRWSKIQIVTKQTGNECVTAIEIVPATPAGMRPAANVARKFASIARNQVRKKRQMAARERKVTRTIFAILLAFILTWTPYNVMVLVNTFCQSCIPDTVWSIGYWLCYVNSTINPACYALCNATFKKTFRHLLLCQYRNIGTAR

[7] = Unbound Cmax in rat plasma at 3 mg/kg, ip; assay type: ADME, organism-based; conditions: in vivo
[8] = AUC (0.25 to last) in mouse plasma at 3 mg/kg, ip; assay type: ADME, organism-based; set-up: dose 3 mg/kg, route ip
[9] = target: Cytochrome P450 2D6 (Homo sapiens, UniProt P10635); assay: Inhibition of CYP2D6 in human liver microsomes using cocktail of isoform-specific probe substrate; assay type: ADME, Microsome
Chain of Cytochrome P450 2D6 (P10635 whole entry, canonical isoform): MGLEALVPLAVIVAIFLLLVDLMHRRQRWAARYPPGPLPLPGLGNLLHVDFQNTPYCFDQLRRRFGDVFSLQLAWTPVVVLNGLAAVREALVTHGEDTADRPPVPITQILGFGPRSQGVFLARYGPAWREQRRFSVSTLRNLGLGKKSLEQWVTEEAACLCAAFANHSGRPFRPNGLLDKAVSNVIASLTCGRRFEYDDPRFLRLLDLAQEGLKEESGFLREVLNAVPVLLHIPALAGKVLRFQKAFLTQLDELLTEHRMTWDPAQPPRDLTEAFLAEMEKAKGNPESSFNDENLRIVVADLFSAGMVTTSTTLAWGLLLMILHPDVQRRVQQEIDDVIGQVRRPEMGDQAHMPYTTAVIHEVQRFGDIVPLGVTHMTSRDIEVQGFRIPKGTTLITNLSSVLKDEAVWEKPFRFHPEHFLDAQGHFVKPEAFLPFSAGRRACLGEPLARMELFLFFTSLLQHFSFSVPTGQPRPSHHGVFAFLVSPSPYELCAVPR

[10] = target: T4, Muscarinic acetylcholine receptor M1 (Homo sapiens, UniProt P11229); assay: Inhibition of human muscarinic acetylcholine M1 receptor expressed in CHO cells co-expressing Gqi5 preincubated with compound followed by acetylcholine addition at EC80 concentration by calcium mobilization assay; assay type: functional, cell-based
T4 sequence (P11229 whole entry): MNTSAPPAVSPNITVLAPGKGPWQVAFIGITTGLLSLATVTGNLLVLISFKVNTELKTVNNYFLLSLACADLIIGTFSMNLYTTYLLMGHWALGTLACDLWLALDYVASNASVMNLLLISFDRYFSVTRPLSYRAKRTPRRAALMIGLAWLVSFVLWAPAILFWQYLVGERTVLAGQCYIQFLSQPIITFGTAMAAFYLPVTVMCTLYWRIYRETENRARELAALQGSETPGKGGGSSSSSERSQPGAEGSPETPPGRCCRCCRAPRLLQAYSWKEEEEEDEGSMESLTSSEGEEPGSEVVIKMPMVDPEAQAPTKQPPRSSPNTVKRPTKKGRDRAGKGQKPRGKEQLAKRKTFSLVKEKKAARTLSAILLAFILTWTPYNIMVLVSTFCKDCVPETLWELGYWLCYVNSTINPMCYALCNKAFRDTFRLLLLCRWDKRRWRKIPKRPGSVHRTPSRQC

[11] = AUC (0.25 to last) in rat brain at 3 mg/kg, ip; assay type: ADME, organism-based; conditions: in vivo
[12] = Cmax in mouse plasma at 3 mg/kg, ip; assay type: ADME, organism-based; set-up: dose 3 mg/kg, route ip
[13] = MRT in rat at 3 mg/kg, iv; assay type: ADME, organism-based; conditions: in vivo
[14] = target: T2, Muscarinic acetylcholine receptor M2; assay: Inhibition of human muscarinic acetylcholine M2 receptor expressed in CHO cells co-expressing Gqi5 preincubated with compound followed by acetylcholine addition at EC80 concentration by calcium mobilization assay; assay type: functional, cell-based
[15] = target: Cytochrome P450 2C9 (Homo sapiens, UniProt P11712); assay: Inhibition of CYP2C9 in human liver microsomes using cocktail of isoform-specific probe substrate; assay type: ADME, Microsome
Chain of Cytochrome P450 2C9 (P11712 whole entry, canonical isoform): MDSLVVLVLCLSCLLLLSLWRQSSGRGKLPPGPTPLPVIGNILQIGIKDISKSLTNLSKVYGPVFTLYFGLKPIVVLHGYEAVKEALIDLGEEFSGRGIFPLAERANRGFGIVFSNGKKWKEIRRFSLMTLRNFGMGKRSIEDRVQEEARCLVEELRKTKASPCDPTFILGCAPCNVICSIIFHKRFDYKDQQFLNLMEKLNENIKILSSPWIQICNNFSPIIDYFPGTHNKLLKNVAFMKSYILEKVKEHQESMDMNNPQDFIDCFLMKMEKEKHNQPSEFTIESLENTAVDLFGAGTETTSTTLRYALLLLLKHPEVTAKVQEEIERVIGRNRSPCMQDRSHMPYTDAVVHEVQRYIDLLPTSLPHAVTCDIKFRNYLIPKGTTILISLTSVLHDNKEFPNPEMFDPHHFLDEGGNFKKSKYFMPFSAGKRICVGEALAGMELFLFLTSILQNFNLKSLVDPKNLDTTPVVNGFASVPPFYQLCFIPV

[16] = AUC (0 to last) in rat at 3 mg/kg, iv; assay type: ADME, organism-based; set-up: time 0 - last, dose 3 mg/kg, route iv; conditions: in vivo
[17] = target: Muscarinic acetylcholine receptor M3 (Rattus norvegicus, UniProt P08483); assay: Inhibition of rat muscarinic acetylcholine M3 receptor expressed in CHO cells co-expressing Gqi5 preincubated with compound followed by acetylcholine addition at EC80 concentration by calcium mobilization assay; assay type: functional, cell-based
Chain of Muscarinic acetylcholine receptor M3 (P08483 whole entry, canonical isoform): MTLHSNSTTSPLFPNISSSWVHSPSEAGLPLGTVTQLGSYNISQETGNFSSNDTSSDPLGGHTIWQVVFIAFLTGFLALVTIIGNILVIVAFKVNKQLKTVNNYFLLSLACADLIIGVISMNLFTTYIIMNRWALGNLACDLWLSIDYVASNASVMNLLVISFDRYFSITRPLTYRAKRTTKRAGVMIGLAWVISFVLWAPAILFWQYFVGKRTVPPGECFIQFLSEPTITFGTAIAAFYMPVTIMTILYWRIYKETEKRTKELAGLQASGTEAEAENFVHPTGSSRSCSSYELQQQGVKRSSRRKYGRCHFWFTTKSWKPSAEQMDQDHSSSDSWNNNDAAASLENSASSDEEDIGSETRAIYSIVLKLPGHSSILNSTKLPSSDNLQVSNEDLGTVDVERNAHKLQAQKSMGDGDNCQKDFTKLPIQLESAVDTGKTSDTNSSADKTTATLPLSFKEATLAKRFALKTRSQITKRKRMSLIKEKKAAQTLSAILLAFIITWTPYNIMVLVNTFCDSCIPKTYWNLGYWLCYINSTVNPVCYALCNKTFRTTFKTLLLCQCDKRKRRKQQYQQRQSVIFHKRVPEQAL

[18] = target: Cytochrome P450 3A4 (Homo sapiens, UniProt P08684); assay: Inhibition of CYP3A4 in human liver microsomes using cocktail of isoform-specific probe substrate; assay type: ADME, Microsome
Chain of Cytochrome P450 3A4 (P08684 whole entry, canonical isoform): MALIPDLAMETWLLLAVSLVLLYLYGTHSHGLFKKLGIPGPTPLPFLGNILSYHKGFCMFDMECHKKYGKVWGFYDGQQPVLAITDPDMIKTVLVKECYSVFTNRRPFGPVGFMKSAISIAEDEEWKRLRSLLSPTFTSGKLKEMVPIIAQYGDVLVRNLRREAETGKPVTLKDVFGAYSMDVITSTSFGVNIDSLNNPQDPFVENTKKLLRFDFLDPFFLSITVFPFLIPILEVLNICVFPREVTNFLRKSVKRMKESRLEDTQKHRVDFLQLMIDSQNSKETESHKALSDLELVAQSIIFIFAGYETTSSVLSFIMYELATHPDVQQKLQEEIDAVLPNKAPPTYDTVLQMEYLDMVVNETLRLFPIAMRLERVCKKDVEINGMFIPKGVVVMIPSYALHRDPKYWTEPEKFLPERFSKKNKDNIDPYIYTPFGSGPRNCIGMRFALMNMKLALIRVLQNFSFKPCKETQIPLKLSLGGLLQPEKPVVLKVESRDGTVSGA

- Vd [1]: 147 L/kg
- IC50 [2]: > 30 µM
- Tmax [3]: 0.25 h
- IC50 [4]: > 10 µM
- Kp [5]: 0.23
- IC50 [6]: 0.071 µM
- fCmax [7]: 1656 ng/mL
- AUC [8]: 10500 ng·h/mL
- IC50 [9]: > 30 µM
- IC50 [10]: > 10 µM
- AUClast [11]: 2180 ng·h/g
- Cmax [12]: 6870 ng/mL
- MRT [13]: 9.33 h
- IC50 [14]: > 10 µM
- IC50 [15]: > 30 µM
- AUC(0-t) [16]: 181 ng·h/mL
- IC50 [17]: > 10 µM
- IC50 [18]: > 30 µM
SMILES: CC(=O)Nc1ccc(-c2ccc(NC[C@@H]3CC34CCN(CC3CCOCC3)CC4)nn2)cc1
